Test results published in patent US6432983B1, “Benzothiophene compounds intermediates processes and methods of use” (Eli Lilly and Company, priority 1996, dated 2002).
Marks after values point to notes of the source that are not given here.

Test system: ovariectomized rats
Assay: ovariectomized rat model of postmenopausal hyperlipidemia (uterine weight, uterine eosinophil peroxidase, serum cholesterol)
Format: in vivo
Set-up: Uterine Eosinophil (Vmax): unit not given here
Conditions: for Serum Cholest. % Dec: decrease versus ovariectomized controls
Excerpt: Experimental models of postmenopausal hyperlipidemia are known in the art. Germane to this invention is the ovariectomized rat model which is detailed in U.S. Pat. No. 5,464,845.
Data presented in Table 1 show comparative results among ovariectomized rats, rats treated with 17-α-ethynyl estradiol(EE2), and rats treated with certain compounds of this invention. […] This uterine response to estrogen is well recognized in the art.
Not only did the compounds of the present invention reduce serum cholesterol compared to the ovariectomized animals, but the uterine weight was increased to lesser extent than those given EE2. Compared to estrogenic compounds known in the art, the benefit of serum cholesterol reduction while lessening the effect on uterine weight is unusual and desirable.
As expressed in the data below, estrogenicity also was assessed by evaluating the response of eosinophil infiltration into the uterus.
The data presented in Table 1 reflect the response per treatment group.

[1] = ovariectomized rats, dose 1.0 mg/kg
[2] = ovariectomized rats, dose 10.0 mg/kg

Compound: O=C(c1ccc(OCCCCN2CCCC2)cc1)c1c(-c2ccc(O)cc2)sc2cc(O)ccc12 [Example 14, [2-(4-Hydroxyphenyl)-6-hydroxybenzo[b]thien-3-yl][4-[4-(1-pyrrolidinyl)butyloxyl]phenyl]methanone]
- Serum Cholest. % Dec [1]: 37.9* %
- Serum Cholest. % Dec [2]: 65.7* %
- Uterine Eosinophil (Vmax) (rat, in vivo, 1 mg/kg): 24.3*
- Uterine Weight % Inc (rat, in vivo, 1 mg/kg): 21.4* %
- Uterine Eosinophil (Vmax) (rat, in vivo, 10 mg/kg): 66.5*
- Uterine Weight % Inc (rat, in vivo, 10 mg/kg): 62.0* %

Compound: O=C(c1ccc(OCCCCCCCN2CCCC2)cc1)c1c(-c2ccc(O)cc2)sc2cc(O)ccc12 [Example 11, [2-(4-Hydroxyphenyl)-6-hydroxybenzo[b]thien-3-yl][4-[7-(1-pyrrolidinyl)heptyloxyl]phenyl]methanone]
- Serum Cholest. % Dec [1]: 32.4* %
- Serum Cholest. % Dec [2]: 60.5* %
- Uterine Eosinophil (Vmax) (rat, in vivo, 1 mg/kg): 5.9
- Uterine Weight % Inc (rat, in vivo, 1 mg/kg): 9.3%
- Uterine Eosinophil (Vmax) (rat, in vivo, 10 mg/kg): 59.2*
- Uterine Weight % Inc (rat, in vivo, 10 mg/kg): 64.0* %

Compound: O=C(c1ccc(OCCCN2CCCC2)cc1)c1c(-c2ccc(O)cc2)sc2cc(O)ccc12 [Example 15, [2-(4-Hydroxyphenyl)-6-hydroxybenzo[b]thien-3-yl][4-[3-(1-pyrrolidinyl)propyloxyl]phenyl]methanone]
- Serum Cholest. % Dec [1]: 62.7* %
- Serum Cholest. % Dec [2]: 64.0* %
- Uterine Eosinophil (Vmax) (rat, in vivo, 1 mg/kg): 51.6*
- Uterine Weight % Inc (rat, in vivo, 1 mg/kg): 52.6* %
- Uterine Eosinophil (Vmax) (rat, in vivo, 10 mg/kg): 137.3*
- Uterine Weight % Inc (rat, in vivo, 10 mg/kg): 58.2* %

Compound: C#C[C@]1(O)CC[C@H]2[C@@H]3CCc4cc(O)ccc4[C@H]3CC[C@@]21C [EE2, 17-α-ethynyl estradiol, reference compound]
- uterine weight (in words) (compared to the ovariectomized animals or to EE2): substantially greater than the uterine weight of the ovariectomized animals
- serum cholesterol (in words) (compared to the ovariectomized animals, EE2 orally at 0.1 mg/kg/day): caused a decrease in serum cholesterol
- Uterine Weight % Inc (ovariectomized rats, dose 0.1 mg/kg, % increase versus the ovariectomized controls): 125.8* %
- Uterine Eosinophil (Vmax) (ovariectomized rats, dose 0.1 mg/kg, Eosinophil peroxidase, Vmaximum): 111.2*
- Serum Cholest. % Dec (ovariectomized rats, dose 0.1 mg/kg): 88.1* %
- eosinophil infiltration into the uterus (in words) (stromal layer of the ovariectomized rat uteri): substantial and expected increase in eosinophil infiltration

Compound: O=C(c1ccc(OCCCCCCCCN2CCCC2)cc1)c1c(-c2ccc(O)cc2)sc2cc(O)ccc12 [Preparation C, [2-(4-Hydroxyphenyl)-6-hydroxybenzo[b]thien-3-yl][4-[8-(1-pyrrolidinyl)octyloxyl]phenyl]methanone]
- Serum Cholest. % Dec [1]: 31.3* %
- Serum Cholest. % Dec [2]: 72.8* %
- Uterine Eosinophil (Vmax) (rat, in vivo, 1 mg/kg): 4.2
- Uterine Weight % Inc (rat, in vivo, 1 mg/kg): 18.3* %
- Uterine Eosinophil (Vmax) (rat, in vivo, 10 mg/kg): 40.3*
- Uterine Weight % Inc (rat, in vivo, 10 mg/kg): 69.3* %

Compound: O=C(c1ccc(OCCCCCCN2CCCC2)cc1)c1c(-c2ccc(O)cc2)sc2cc(O)ccc12 [Example 12, [2-(4-Hydroxyphenyl)-6-hydroxybenzo[b]thien-3-yl][4-[6-(1-pyrrolidinyl)hexyloxyl]phenyl]methanone]
- Serum Cholest. % Dec [1]: 34.2* %
- Serum Cholest. % Dec [2]: 74.0* %
- Uterine Eosinophil (Vmax) (rat, in vivo, 1 mg/kg): 2.6
- Uterine Weight % Inc (rat, in vivo, 1 mg/kg): −2.6%
- Uterine Eosinophil (Vmax) (rat, in vivo, 10 mg/kg): 17.2*
- Uterine Weight % Inc (rat, in vivo, 10 mg/kg): 47.8* %

Compound: O=C(c1ccc(OCCCCCN2CCCC2)cc1)c1c(-c2ccc(O)cc2)sc2cc(O)ccc12 [Example 13, [2-(4-Hydroxyphenyl)-6-hydroxybenzo[b]thien-3-yl][4-[5-(1-pyrrolidinyl)pentyloxyl]phenyl]methanone]
- Serum Cholest. % Dec [1]: 36.4* %
- Serum Cholest. % Dec [2]: 52.9* %
- Uterine Eosinophil (Vmax) (rat, in vivo, 1 mg/kg): 5.8
- Uterine Weight % Inc (rat, in vivo, 1 mg/kg): 10.1%
- Uterine Eosinophil (Vmax) (rat, in vivo, 10 mg/kg): 37.8*
- Uterine Weight % Inc (rat, in vivo, 10 mg/kg): 39.2* %
